Assay results: ChEMBL document CHEMBL1132067, “Cytotoxic effects of NSL-1406, a new thienopyrimidine derivative, on leukocytes and osteoclasts” (Bioorg Med Chem Lett, 1999)
pIC50: −log10 of the molar value.

Assays:
[1] = test system: P388; experiment: Cytotoxicity against P388 cells is the dose giving 50% decrease in the formation of formazan dye; assay type: functional, cell-based; settings: Mus musculus
[2] = test system: P388; experiment: Dose giving a 50% decrease in the living cell number (P388 cells); assay type: functional; settings: Mus musculus, read-out: LD50 (the source's name)
[3] = test system: A-431; experiment: Cytotoxicity against […] cells is the dose giving 50% decrease in the formation of formazan dye; assay type: functional, cell-based; settings: Homo sapiens
[4] = test system: HL-60; experiment: Dose giving a 50% decrease in the living cell number (HL-60 cells); assay type: functional; settings: Homo sapiens, read-out: LD50 (the source's name)
[5] = test system: J774; experiment: Cytotoxicity against J774 cells is the dose giving 50% decrease in the formation of formazan dye; assay type: functional, cell-based; settings: Mus musculus
[6] = test system: ECV-304; experiment: Cytotoxicity against ECV-304 cells is the dose giving 50% decrease in the formation of formazan dye; assay type: functional, cell-based; settings: Homo sapiens
[7] = test system: ECV-304; experiment: Dose giving a 50% decrease in the living cell number (ECV-304 cells); assay type: functional; settings: Homo sapiens, read-out: LD50 (the source's name)
[8] = test system: J774; experiment: Dose giving a 50% decrease in the living cell number (J774 cells); assay type: functional; settings: Mus musculus, read-out: LD50 (the source's name)
[9] = test system: HL-60; experiment: Cytotoxicity against HL-60 cells is the dose giving 50% decrease in the formation of formazan dye; assay type: functional, cell-based; settings: Homo sapiens
[10] = test system: A-431; experiment: Dose giving a 50% decrease in the living cell number ([…] cells); assay type: functional; settings: Homo sapiens, read-out: LD50 (the source's name)

SMILES | pIC50 [1] | CC50 [2] | other results
Cc1csc2ncnc(NCCc3ccccc3)c12 | 7.54 | 43 µM | –
Cc1csc2ncnc(NCCc3ccc(O)cc3)c12 | 6.72 | 86 µM | –
Clc1ccc(CCNc2ncnc3sccc23)cc1 | 7.46 | 73 µM | –
Cc1csc2ncnc(NCc3ccc(Cl)cc3)c12 | 6.77 | 74 µM | –
Cc1csc2ncnc(NCCc3ccc(F)cc3)c12 | 7.54 | 68 µM | –
COc1ccc(CCNc2ncnc3scc(C)c23)cc1 | 8.13 | 46 µM | –
Cc1csc2ncnc(NCCc3ccc(Cl)cc3)c12 | 8.28 | 35 µM | pIC50 [3]: 4.70; CC50 [4]: 67 µM; pIC50 [5]: 8.30; pIC50 [6]: 4.47; CC50 [7]: 53 µM; CC50 [8]: 43 µM; pIC50 [9]: 8.07; CC50 [10]: 51 µM
Clc1ccc(CCNc2ncnc3ccsc23)cc1 | 7.54 | 41 µM | –
Clc1ccc(CCNc2[nH]cnc3ncnc2-3)cc1 | 5.14 | 96 µM | –
Cc1csc2ncnc(NCCC(=O)O)c12 | 4.92 | 250 µM | –
Cc1csc2ncnc(NCCc3ccc(Br)cc3)c12 | 8.96 | 58 µM | –
Cc1csc2ncnc(Cl)c12 | 4.48 | 490 µM | –
CCCNc1ncnc2scc(C)c12 | 5.26 | 85 µM | –
Cc1csc2ncnc(NCCCc3ccc(Cl)cc3)c12 | 5.89 | 98 µM | –
Cc1csc2ncnc(NCCc3ccc(N)cc3)c12 | 7.66 | 39 µM | –
